{"source": "BindingDB's records for doi:10.1016/s0960-894x(98)00169-3", "about": "(Merck Research Laboratories, 1999)", "biological_target": "Beta-2 adrenergic receptor (Homo sapiens, UniProt P07550)", "sequence (P07550 whole entry)": "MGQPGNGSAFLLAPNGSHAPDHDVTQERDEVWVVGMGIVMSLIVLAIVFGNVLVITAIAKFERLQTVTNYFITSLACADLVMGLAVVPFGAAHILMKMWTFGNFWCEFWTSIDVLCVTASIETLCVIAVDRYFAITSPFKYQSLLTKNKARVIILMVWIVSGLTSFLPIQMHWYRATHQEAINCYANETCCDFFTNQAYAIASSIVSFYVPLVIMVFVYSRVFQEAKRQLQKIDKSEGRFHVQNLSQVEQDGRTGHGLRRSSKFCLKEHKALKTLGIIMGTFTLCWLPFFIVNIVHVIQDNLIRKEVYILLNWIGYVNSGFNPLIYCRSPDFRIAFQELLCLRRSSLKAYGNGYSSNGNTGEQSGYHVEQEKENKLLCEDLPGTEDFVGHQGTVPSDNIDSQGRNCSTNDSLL", "assay": "Compound was tested for agonist activity against cloned human beta-2 adrenergic receptor at a concentration of 1000 nM"}
{"molecule": "COc1ccc(CC[C@H](C)NC[C@@H](O)COc2ccc(O)cc2)cc1", "note": "[4-{(R)-2-Hydroxy-3-[(S)-3-(4-methoxy-phenyl)-1-methyl-propylamino]-propoxy}-phenol]", "values": [{"measurement": "EC50", "value": "< 0.1", "unit": "nM"}]}
